Source: patent EP4685142A1, “TRIAZINE COMPOUND AND USE THEREOF” (Chengdu Zenitar Biomedical Technology Co., Ltd., priority 2023, dated 2024)
Read-outs that look alike come from different tables or passages of the source.

Tests used:
NLRP3 inflammasome = molecular target: T1, NLRP3 inflammasome (Homo sapiens, UniProt Q96P20); assay: Inhibitory activity of NLRP3 inflammasome in human monocytes (THP-1 cells, LPS + Nigericin, IL-1β ELISA); type: cell-based
T1 construct: host or cells: THP-1 cells
Summary of the method: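 THP-1 cells differentiated overnight with 10 µM PMA at 37°C and 5% CO2, then primed 3 h with 1 µg/mL LPS in Opti-MEM. Compound applied for 40 min, followed by 40 min with 10 µM nigericin. IL-1β in supernatant measured by ELISA.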

[1] = Pharmacokinetic evaluation in Balb/c mice; type: in vivo
LPS-induced mice = assay: LPS-induced mouse model, survival; type: in vivo, Balb/c mice; conditions: for 72h Survival rate: 1 h before 10 mg/kg LPS i.p.
human NLRP3 protein = human NLRP3 protein (Homo sapiens, UniProt Q96P20); assay: Affinity for human NLRP3 protein (Biacore T200, CM5 chip); type: binding; conditions: protein immobilized on CM5 chip, 25°C
human NLRP3 protein, sequence (Q96P20 whole entry): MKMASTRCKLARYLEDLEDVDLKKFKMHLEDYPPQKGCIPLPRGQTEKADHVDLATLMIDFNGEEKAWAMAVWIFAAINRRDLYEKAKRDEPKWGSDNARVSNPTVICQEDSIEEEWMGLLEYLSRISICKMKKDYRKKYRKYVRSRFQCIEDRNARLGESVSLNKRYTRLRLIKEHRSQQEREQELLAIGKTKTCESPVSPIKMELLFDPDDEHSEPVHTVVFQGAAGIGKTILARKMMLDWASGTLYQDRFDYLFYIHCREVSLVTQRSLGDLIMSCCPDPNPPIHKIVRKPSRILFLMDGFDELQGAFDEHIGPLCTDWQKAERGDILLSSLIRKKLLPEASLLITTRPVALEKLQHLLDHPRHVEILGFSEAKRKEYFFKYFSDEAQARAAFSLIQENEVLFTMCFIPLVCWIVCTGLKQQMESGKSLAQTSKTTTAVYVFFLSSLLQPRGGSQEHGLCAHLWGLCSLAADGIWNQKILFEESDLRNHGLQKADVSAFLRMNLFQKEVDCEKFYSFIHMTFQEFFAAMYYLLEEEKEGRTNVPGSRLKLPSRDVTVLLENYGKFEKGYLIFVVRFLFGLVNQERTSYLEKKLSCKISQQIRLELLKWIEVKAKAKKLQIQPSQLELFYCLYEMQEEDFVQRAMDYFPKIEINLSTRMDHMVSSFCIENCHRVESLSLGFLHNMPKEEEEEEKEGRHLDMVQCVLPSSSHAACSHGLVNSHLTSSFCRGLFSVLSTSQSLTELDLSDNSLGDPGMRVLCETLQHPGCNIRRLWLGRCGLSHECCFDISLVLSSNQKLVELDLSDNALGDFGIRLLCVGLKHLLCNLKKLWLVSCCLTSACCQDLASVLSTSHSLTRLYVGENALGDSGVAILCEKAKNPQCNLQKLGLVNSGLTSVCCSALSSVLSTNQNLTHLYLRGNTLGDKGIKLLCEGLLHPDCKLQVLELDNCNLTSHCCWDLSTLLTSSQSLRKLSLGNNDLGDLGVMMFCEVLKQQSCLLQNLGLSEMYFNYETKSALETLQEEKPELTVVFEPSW

[2] = molecular target: T2, hERG potassium ion channel (Homo sapiens, UniProt Q12809)
T2 sequence (Q12809 whole entry): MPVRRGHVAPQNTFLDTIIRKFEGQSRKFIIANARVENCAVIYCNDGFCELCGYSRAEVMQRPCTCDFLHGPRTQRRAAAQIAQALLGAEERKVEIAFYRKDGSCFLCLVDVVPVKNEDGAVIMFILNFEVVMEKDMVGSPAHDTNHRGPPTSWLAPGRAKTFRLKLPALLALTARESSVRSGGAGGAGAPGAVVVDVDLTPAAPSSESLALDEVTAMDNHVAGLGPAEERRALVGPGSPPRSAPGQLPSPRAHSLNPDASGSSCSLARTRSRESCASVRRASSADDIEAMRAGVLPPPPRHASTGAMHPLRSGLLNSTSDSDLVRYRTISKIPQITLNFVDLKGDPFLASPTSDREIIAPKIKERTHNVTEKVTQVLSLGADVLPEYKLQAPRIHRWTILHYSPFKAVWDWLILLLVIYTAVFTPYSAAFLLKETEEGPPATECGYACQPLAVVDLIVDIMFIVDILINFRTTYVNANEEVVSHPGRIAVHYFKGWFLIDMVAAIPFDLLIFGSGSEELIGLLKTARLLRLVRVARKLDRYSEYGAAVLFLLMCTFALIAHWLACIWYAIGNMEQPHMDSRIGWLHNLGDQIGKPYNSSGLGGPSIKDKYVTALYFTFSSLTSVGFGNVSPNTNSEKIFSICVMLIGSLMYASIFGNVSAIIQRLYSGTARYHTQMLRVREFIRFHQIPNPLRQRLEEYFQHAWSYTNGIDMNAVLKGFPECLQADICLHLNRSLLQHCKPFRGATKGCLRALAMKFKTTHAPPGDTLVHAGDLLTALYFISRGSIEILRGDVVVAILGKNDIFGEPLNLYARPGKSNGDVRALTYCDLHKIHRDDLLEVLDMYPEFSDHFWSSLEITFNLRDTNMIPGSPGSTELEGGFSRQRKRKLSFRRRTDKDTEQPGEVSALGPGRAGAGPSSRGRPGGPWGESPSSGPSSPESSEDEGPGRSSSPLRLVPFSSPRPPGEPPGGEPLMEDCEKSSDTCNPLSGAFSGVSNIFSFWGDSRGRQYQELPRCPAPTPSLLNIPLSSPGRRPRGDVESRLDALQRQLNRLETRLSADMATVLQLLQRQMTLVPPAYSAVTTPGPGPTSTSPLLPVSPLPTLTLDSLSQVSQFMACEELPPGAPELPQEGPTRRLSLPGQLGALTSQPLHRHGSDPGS

[3] = In vivo brain-to-plasma ratio in mice; conditions: for Brain / Plasma: male mice, oral 10 mg/kg
Experimental: Evaluation of in vivo brain-to-plasma ratio of compound
Experimental purpose: to obtain the brain-to-plasma ratio of the compound
Experimental protocol: the brain-to-plasma ratio of the compound was investigated by monitoring the content of the compound in mouse brain and plasma.
Experimental procedure: the compound was weighed, followed by adding a small amount of DMSO and adding a sodium chloride solution for injection, to prepare a 10 mg · mL^-1 compound solution for administration. Male mice were orally administered at 10 mg · kg^-1, and whole plasma and whole brain tissue were sampled at 1 h and 6 h after administration (n=3). […] A centrifuge tube was weighed as M1, the centrifuge tube containing the whole brain tissue was weighed as M2, the centrifuge tube containing water for homogenization was weighed as M3, and the centrifuge tube after the removal of 30 µL homogenate was weighed as M4.
Standard curve range: 10-10,000 ng·mL^-1. Content of drug in brain = measured value × 0.03 × (M3−M1)/[(M2−M1)×(M3−M4)].

[4] = In vivo distribution of cerebrospinal fluid and plasma; conditions: for concentration at 0.25 h / concentration at 2 h: male, mouse, iv, 5 mg/kg; for Cerebrospinal fluid / Plasma: intravenous 5 mg/kg, n=1
Experimental: Evaluation of in vivo distribution of cerebrospinal fluid and plasma after compound administration
Experimental procedure: the compound was weighed, followed by adding a small amount of DMSO and then adding a sodium chloride solution for injection, to prepare a 5 mg·mL^-1 compound solution for administration. […] Standard curve range: 1-1000 ng·mL^-1.

[5] = molecular target: T2, hERG potassium ion channel; assay: Inhibition of hERG potassium ion channel (CHO cells stably expressing hERG, Qpatch)
[6] = tested on: IL-1β in human PBMC cells; assay: Inhibitory activity on IL-1β in human PBMC cells (LPS + Nigericin, ELISA); type: cell-based; conditions: Homo sapiens, PBMC
Experimental: 2. Determination of inhibitory activity of compounds on IL-1β in human PBMC cells
Human peripheral blood mononuclear cells (PBMCs) were taken and cultured overnight in RPMI 1640 culture medium containing 10% FBS and antibiotics before stimulation. On the second day, the culture medium was replaced with a serum-reduced culture medium, the grown cells were stimulated for 3 h with LPS at a working concentration of 1 µg/mL, stimulated for 40 min with a drug, and then stimulated for 40 min with Nigericin at a concentration of 10 µM, the cell supernatant was harvested, and the yield of IL-1β was detected by ELISA.
The experimental results are shown in Table 3: Table 3 Inhibitory effect of compounds on IL-1β in PBMC cells

[7] = male, Balb/c, mouse, in vivo, po, 5 mg/kg
[8] = male, mouse, brain/plasma, po, 10 mg/kg
[9] = male, mouse, plasma, po, 10 mg/kg
[10] = 50 mg/kg, First cage (6 mice for Compound 3, 5 mice for Compound 4)
[11] = 50 mg/kg, Second cage (6 mice for Compound 3, 5 mice for Compound 4)

T1 sequence (Q96P20 whole entry): as the sequence (Q96P20 whole entry) above

SMILES: CN1C[C@H](F)C[C@@H](Nc2nnc(-c3ccc4sccc4c3O)n(C)c2=O)C1 [Compound 40]
- IC50 (NLRP3 inflammasome; THP-1 cells, PMA, LPS 1 µg/mL 3 h, drug 40 min, Nigericin 10 µM 40 min, IL-1β ELISA, read-out: IC50): 2.97 nM
- AUC(0-t) [1, 7]: 40400 ng·h/mL
- Cmax [1, 7]: 15000 ng/mL
- half-life [1, 7]: 2.86 h
- 72h Survival rate (LPS-induced mice; 25 mg/kg oral): 90%
- survival status of mice (mice alive) 12h (LPS-induced mice; 25 mg/kg, First cage (5 mice)): 5
- survival status of mice (mice alive) 24h (LPS-induced mice; 25 mg/kg, First cage (5 mice)): 5
- survival status of mice (mice alive) 36h (LPS-induced mice; 25 mg/kg, First cage (5 mice)): 5
- survival status of mice (mice alive) 48h (LPS-induced mice; 25 mg/kg, First cage (5 mice)): 5
- survival status of mice (mice alive) 72h (LPS-induced mice; 25 mg/kg, First cage (5 mice)): 5
- survival status of mice (mice alive) 12h (LPS-induced mice; 25 mg/kg, Second cage (5 mice)): 5
- survival status of mice (mice alive) 24h (LPS-induced mice; 25 mg/kg, Second cage (5 mice)): 5
- survival status of mice (mice alive) 36h (LPS-induced mice; 25 mg/kg, Second cage (5 mice)): 5
- survival status of mice (mice alive) 48h (LPS-induced mice; 25 mg/kg, Second cage (5 mice)): 4
- survival status of mice (mice alive) 72h (LPS-induced mice; 25 mg/kg, Second cage (5 mice)): 4
- Kd (human NLRP3 protein): 62.1 nM
- inhibitory effects on the hERG potassium ion channel (conclusion in words) ([2]; human): Conclusion: compounds 3, 4, 5, 9, 16, 17, 24, 30, 40, 41, 42, 43, 54 and others have weak inhibitory effects on the hERG potassium ion channel, having weaker inhibitory effect than the reference compound Ref-1.
- Brain ([3]; 1 h): 1350 ng/g
- Brain ([3]; 6 h): 199 ng/g
- Kp at 1 h [3, 8]: 0.19
- Kp at 6 h [3, 8]: 0.14
- concentration at 1 h [3, 9]: 7240 ng/mL
- concentration at 6 h [3, 9]: 1460 ng/mL
- concentration at 0.25 h ([4]; cerebrospinal fluid): 191 ng/g
- concentration at 2 h ([4]; cerebrospinal fluid): 0.51 ng/g
- concentration at 0.25 h ([4]; plasma): 5030 ng/mL
- concentration at 2 h ([4]; plasma): 826 ng/mL
- 20 uM Inhibition ratio [5]: 3.48%

SMILES: CCN1CCC[C@@H](Nc2nnc(-c3ccc4sccc4c3O)n(C)c2=O)C1 [Compound 3, (R)-6-((1-ethylpiperidin-3-yl)amino)-3-(4-hydroxybenzo[b]thiophen-5-yl)-4-methyl-1,2,4-tria zin-5(4H)-ketone]
- IC50 (NLRP3 inflammasome): 2.11 nM
- IC50 [6]: 1.23 nM
- F ([1]; 5 mg/kg PO vs 5 mg/kg IV, Balb/c mice): 81.05%
- clearance ([1]; mouse, in vivo, 5 mg/kg, IV, Balb/c mice): 9.67 mL/min/kg
- AUC(0-t) ([1]; mouse, in vivo, 5 mg/kg, IV, Balb/c mice, read-out: AUC(0-t)): 8300 ng·h/mL
- Cmax ([1]; mouse, in vivo, 5 mg/kg, IV, Balb/c mice, read-out: Cmax): 1990 ng/mL
- half-life ([1]; mouse, in vivo, 5 mg/kg, IV, Balb/c mice, read-out: T1/2 (converted)): 5.4 h
- Vd ([1]; mouse, in vivo, 5 mg/kg, IV, Balb/c mice, read-out: Vdss): 4.51 L/kg
- AUC(0-t) ([1]; mouse, in vivo, 5 mg/kg, PO, Balb/c mice, read-out: AUC(0-t)): 6730 ng·h/mL
- Cmax ([1]; mouse, in vivo, 5 mg/kg, PO, Balb/c mice, read-out: Cmax): 1010 ng/mL
- half-life ([1]; mouse, in vivo, 5 mg/kg, PO, Balb/c mice, read-out: T1/2 (converted)): 4.9 h
- 72h Survival rate (LPS-induced mice; 25 mg/kg oral): 90%
- survival status of mice (mice alive) 12h (LPS-induced mice; 25 mg/kg, First cage (5 mice)): 5
- survival status of mice (mice alive) 24h (LPS-induced mice; 25 mg/kg, First cage (5 mice)): 5
- survival status of mice (mice alive) 36h (LPS-induced mice; 25 mg/kg, First cage (5 mice)): 5
- survival status of mice (mice alive) 48h (LPS-induced mice; 25 mg/kg, First cage (5 mice)): 4
- survival status of mice (mice alive) 72h (LPS-induced mice; 25 mg/kg, First cage (5 mice)): 4
- survival status of mice (mice alive) 12h (LPS-induced mice; 25 mg/kg, Second cage (5 mice)): 5
- survival status of mice (mice alive) 24h (LPS-induced mice; 25 mg/kg, Second cage (5 mice)): 5
- survival status of mice (mice alive) 36h (LPS-induced mice; 25 mg/kg, Second cage (5 mice)): 5
- survival status of mice (mice alive) 48h (LPS-induced mice; 25 mg/kg, Second cage (5 mice)): 5
- survival status of mice (mice alive) 72h (LPS-induced mice; 25 mg/kg, Second cage (5 mice)): 5
- 72h Survival rate (LPS-induced mice; 50 mg/kg oral): 92%
- survival status of mice (mice alive) 12h (LPS-induced mice; [10]): 6
- survival status of mice (mice alive) 24h (LPS-induced mice; [10]): 6
- survival status of mice (mice alive) 36h (LPS-induced mice; [10]): 6
- survival status of mice (mice alive) 48h (LPS-induced mice; [10]): 6
- survival status of mice (mice alive) 72h (LPS-induced mice; [10]): 6
- survival status of mice (mice alive) 12h (LPS-induced mice; [11]): 6
- survival status of mice (mice alive) 24h (LPS-induced mice; [11]): 6
- survival status of mice (mice alive) 36h (LPS-induced mice; [11]): 5
- survival status of mice (mice alive) 48h (LPS-induced mice; [11]): 5
- survival status of mice (mice alive) 72h (LPS-induced mice; [11]): 5
- inhibitory effects on the hERG potassium ion channel (conclusion in words) [2]: Conclusion: compounds 3, 4, 5, 9, 16, 17, 24, 30, 40, 41, 42, 43, 54 and others have weak inhibitory effects on the hERG potassium ion channel, having weaker inhibitory effect than the reference compound Ref-1.
- Brain ([3]; 1 h): 761 ng/g
- Plasma ([3]; 1 h): 2082 ng/mL
- Brain ([3]; 6 h): 104 ng/g
- Plasma ([3]; 6 h): 312 ng/mL
- Kp at 1 h ([3]; mouse, brain, po, 10 mg/kg): 0.36
- Kp at 6 h ([3]; mouse, brain, po, 10 mg/kg): 0.33
- Cerebrospinal fluid ([4]; 0.25h): 79 ng/g
- Plasma ([4]; 0.25h): 781 ng/mL
- Cerebrospinal fluid ([4]; 2h): 15 ng/g
- Plasma ([4]; 2h): 185 ng/mL
- 20 uM Inhibition ratio [5]: 38.23%
